According to ChEMBL document CHEMBL1201862, “PubChem BioAssay data set” (2004):
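Five concentrations, 48 hours, 96-well plates. At the GI50, growth is halved.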 The source made the active and inactive calls. Rule as the data show it: active = GI50 up to about 1.1 µM and inactive = higher.

Key:
Experiment in all cases: NCI anticancer screen, dose series, 48 h
SF-539 = tested on: SF-539
ACHN = tested on: ACHN
NCI/ADR-RES = tested on: NCI/ADR-RES
RPMI-8226 = tested on: RPMI-8226
MDA-MB-231 = tested on: MDA-MB-231
IGROV-1 = tested on: IGROV-1
SN12C = tested on: SN12C
UO-31 = tested on: UO-31
SW-620 = tested on: SW-620
OVCAR-8 = tested on: OVCAR-8
OVCAR-3 = tested on: OVCAR-3
SK-MEL-28 = tested on: SK-MEL-28
MDA-MB-435 = tested on: MDA-MB-435
NCI-H460 = tested on: NCI-H460
HCT-116 = tested on: HCT-116
T47D = tested on: T47D
SF-268 = tested on: SF-268
A498 = tested on: A498
HCC 2998 = tested on: HCC 2998
HOP-92 = tested on: HOP-92
UACC-257 = tested on: UACC-257
HT-29 = tested on: HT-29
BT-549 = tested on: BT-549
MOLT-4 = tested on: MOLT-4
MDA-N = tested on: MDA-N
K562 = tested on: K562
NCI-H23 = tested on: NCI-H23
COLO 205 = tested on: COLO 205
OVCAR-5 = tested on: OVCAR-5
TK-10 = tested on: TK-10
EKVX = tested on: EKVX
U-251 = tested on: U-251
SF-295 = tested on: SF-295
SNB-19 = tested on: SNB-19
SNB-75 = tested on: SNB-75
MCF7 = tested on: MCF7
SK-MEL-5 = tested on: SK-MEL-5
SK-MEL-2 = tested on: SK-MEL-2
Malme-3M = tested on: Malme-3M
Hs-578T = tested on: Hs-578T
LOX IMVI = tested on: LOX IMVI
DU-145 = tested on: DU-145
RXF 393 = tested on: RXF 393
NCI-H522 = tested on: NCI-H522
CAKI-1 = tested on: CAKI-1
KM12 = tested on: KM12
HOP-62 = tested on: HOP-62
HL-60 = tested on: HL-60
PC-3 = tested on: PC-3
M14 = tested on: M14
SR = tested on: SR
786-0 = tested on: 786-0
A549 = tested on: A549
NCI-H226 = tested on: NCI-H226
CCRF-CEM = tested on: CCRF-CEM
OVCAR-4 = tested on: OVCAR-4
UACC-62 = tested on: UACC-62
SK-OV-3 = tested on: SK-OV-3
HCT-15 = tested on: HCT-15

Compound: O=C(Nc1cc2cc([N+](=O)[O-])ccc2oc1=O)c1cccs1
- GI50 (SF-539): 25.6 µM (inactive)
- GI50 (ACHN): 49 µM (inactive)
- GI50 (NCI/ADR-RES): 62.2 µM (inactive)
- GI50 (RPMI-8226): 34 µM (inactive)
- GI50 (MDA-MB-231): 34.9 µM (inactive)
- GI50 (IGROV-1): 34.4 µM (inactive)
- GI50 (SN12C): 40.5 µM (inactive)
- GI50 (UO-31): 60.4 µM (inactive)
- GI50 (SW-620): 49.9 µM (inactive)
- GI50 (OVCAR-8): 34.2 µM (inactive)
- GI50 (OVCAR-3): 97.5 µM (inactive)
- GI50 (SK-MEL-28): 58.9 µM (inactive)
- GI50 (MDA-MB-435): 25.2 µM (inactive)
- GI50 (NCI-H460): 51.2 µM (inactive)
- GI50 (HCT-116): 25.4 µM (inactive)
- GI50 (T47D): 38.5 µM (inactive)
- GI50 (SF-268): 33.2 µM (inactive)
- GI50 (A498): > 100 µM (inactive)
- GI50 (HCC 2998): 48.3 µM (inactive)
- GI50 (HOP-92): 37.6 µM (inactive)
- GI50 (UACC-257): 75.2 µM (inactive)
- GI50 (HT-29): 39.5 µM (inactive)
- GI50 (BT-549): 69.2 µM (inactive)
- GI50 (MOLT-4): 25.3 µM (inactive)
- GI50 (MDA-N): 46.1 µM (inactive)
- GI50 (K562): 25.9 µM (inactive)
- GI50 (NCI-H23): > 10 µM (inactive)
- GI50 (COLO 205): 25.2 µM (inactive)
- GI50 (OVCAR-5): > 100 µM (inactive)
- GI50 (TK-10): > 100 µM (inactive)
- GI50 (EKVX): 61.7 µM (inactive)
- GI50 (U-251): 19.8 µM (inactive)
- GI50 (SF-295): 54.2 µM (inactive)
- GI50 (SNB-19): > 100 µM (inactive)
- GI50 (SNB-75): 2.78 µM (inactive)
- GI50 (MCF7): 19.6 µM (inactive)
- GI50 (SK-MEL-5): 16 µM (inactive)
- GI50 (SK-MEL-2): 72.9 µM (inactive)
- GI50 (Malme-3M): > 100 µM (inactive)
- GI50 (Hs-578T): 30.8 µM (inactive)
- GI50 (LOX IMVI): 20.3 µM (inactive)
- GI50 (DU-145): > 100 µM (inactive)
- GI50 (RXF 393): 4.86 µM (inactive)
- GI50 (NCI-H522): 24.5 µM (inactive)
- GI50 (CAKI-1): 48.6 µM (inactive)
- GI50 (KM12): 24.5 µM (inactive)
- GI50 (HOP-62): 28.8 µM (inactive)
- GI50 (HL-60): 16.7 µM (inactive)
- GI50 (PC-3): 37.8 µM (inactive)
- GI50 (M14): 58.7 µM (inactive)
- GI50 (SR): 35 µM (inactive)
- GI50 (786-0): 89.5 µM (inactive)
- GI50 (A549): 43.8 µM (inactive)
- GI50 (NCI-H226): 44 µM (inactive)
- GI50 (CCRF-CEM): 11.3 µM (inactive)
- GI50 (OVCAR-4): 43.6 µM (inactive)

Compound: COc1cc(/C=C2\N=C(c3ccccc3)N(/N=C3\C(=O)Nc4ccccc43)C2=O)cc(OC)c1OC
- GI50 (SF-539): > 100 µM (inactive)
- GI50 (ACHN): > 100 µM (inactive)
- GI50 (NCI/ADR-RES): > 100 µM (inactive)
- GI50 (MDA-MB-231): > 100 µM (inactive)
- GI50 (IGROV-1): > 100 µM (inactive)
- GI50 (SN12C): > 100 µM (inactive)
- GI50 (UO-31): > 100 µM (inactive)
- GI50 (SW-620): > 100 µM (inactive)
- GI50 (OVCAR-8): 94.2 µM (inactive)
- GI50 (OVCAR-3): 24.9 µM (inactive)
- GI50 (SK-MEL-28): > 100 µM (inactive)
- GI50 (MDA-MB-435): 39.1 µM (inactive)
- GI50 (NCI-H460): > 100 µM (inactive)
- GI50 (HCT-116): > 100 µM (inactive)
- GI50 (T47D): > 100 µM (inactive)
- GI50 (SF-268): 66.4 µM (inactive)
- GI50 (A498): > 100 µM (inactive)
- GI50 (HCC 2998): > 100 µM (inactive)
- GI50 (HOP-92): 40.3 µM (inactive)
- GI50 (UACC-257): > 100 µM (inactive)
- GI50 (HT-29): > 100 µM (inactive)
- GI50 (UACC-62): > 100 µM (inactive)
- GI50 (BT-549): > 100 µM (inactive)
- GI50 (MOLT-4): 25.4 µM (inactive)
- GI50 (MDA-N): 42.3 µM (inactive)
- GI50 (K562): > 100 µM (inactive)
- GI50 (NCI-H23): 86.1 µM (inactive)
- GI50 (COLO 205): 57.4 µM (inactive)
- GI50 (OVCAR-5): > 100 µM (inactive)
- GI50 (SK-OV-3): > 100 µM (inactive)
- GI50 (TK-10): > 100 µM (inactive)
- GI50 (EKVX): 46.2 µM (inactive)
- GI50 (U-251): > 100 µM (inactive)
- GI50 (SF-295): > 100 µM (inactive)
- GI50 (SNB-19): > 100 µM (inactive)
- GI50 (SNB-75): > 100 µM (inactive)
- GI50 (MCF7): > 100 µM (inactive)
- GI50 (SK-MEL-5): > 100 µM (inactive)
- GI50 (SK-MEL-2): > 100 µM (inactive)
- GI50 (Malme-3M): 58.5 µM (inactive)
- GI50 (Hs-578T): 54 µM (inactive)
- GI50 (LOX IMVI): 90.8 µM (inactive)
- GI50 (DU-145): > 100 µM (inactive)
- GI50 (RXF 393): > 100 µM (inactive)
- GI50 (NCI-H522): 27.8 µM (inactive)
- GI50 (CAKI-1): > 100 µM (inactive)
- GI50 (KM12): > 100 µM (inactive)
- GI50 (HCT-15): > 100 µM
- GI50 (HOP-62): > 100 µM (inactive)
- GI50 (HL-60): 94.4 µM (inactive)
- GI50 (PC-3): > 100 µM (inactive)
- GI50 (M14): > 100 µM (inactive)
- GI50 (SR): 38.6 µM (inactive)
- GI50 (786-0): > 100 µM (inactive)
- GI50 (A549): > 100 µM (inactive)
- GI50 (NCI-H226): 41.7 µM (inactive)
- GI50 (CCRF-CEM): 37.1 µM (inactive)
- GI50 (OVCAR-4): 61.9 µM (inactive)
